Consider one molecule from patent US20250340661A1, “ANTI CD40 ANTIBODY, ANTIGEN BINDING FRAGMENT AND MEDICAL USE THEREOF” (Jiangsu Hengrui Pharmaceuticals Co., Ltd., priority 2021, published 2025).

In this experiment the test system is human CD40 transgenic mice. Briefly: Mouse skin graft rejection model. The experiment is classed as in vivo. The conditions noted are these: for Skin graft score: 3 mpk. From the text:
Male Balb/c mice, 6 weeks old, were purchased from the Laboratory Animal Management Department, Shanghai Institute of Planned Parenthood Research. Housing environment: SPF; certification number: 20180006023393.
On day −2 of the experiment, the mice were intraperitoneally injected with tacrolimus FK506 or CD40 antagonistic antibodies. On day 0 of the experiment, donor Balb/c mice and C57BL6/J mice were anesthetized with 4% chloral hydrate. The tails of the donor mice were removed, and full circles of skin, 1 cm in length, were isolated from the tails. The hair on the acceptor mice's back was removed, and an incision was made along the skin layer. An equal area of skin was removed while preserving the back fat and connective tissue. The donor skin was placed on the acceptor mice's incision site, and the incision was closed with glue. The mice were then placed back in cages to recover.
The mice were dosed according to the administration regimens in Table 17. After 7 days of recovery, the mouse skin survival was observed daily and rejection scores were recorded.

In turn, `C=CC[C@@H]1/C=C(\C)C[C@H](C)C[C@H](OC)[C@H]2O[C@@](O)(C(=O)C(=O)N3CCCC[C@H]3C(=O)O[C@H](/C(C)=C/[C@@H]3CC[C@@H](O)[C@H](OC)C3)[C@H](C)[C@@H](O)CC1=O)[C@H](C)C[C@@H]2OC` [FK506, tacrolimus, reference compound] yielded a Skin graft score (8 days, scale 3 (no rejection) to 0) of 2.5; a Skin graft score (10 days, scale 3 to 0) of 1.5; a Skin graft score (15 days, scale 3 to 0) of 0.5; a Skin graft score (20 days, scale 3 to 0) of 0. Besides, where the note is “Day 15, 3 mpk ip”, the “Skin graft survival rate (%)” value stood at 16.7%.
